Test results from US20080242684A1, “METHODS OF ADMINISTRATION OF ADENOSINE A1 RECEPTOR ANTAGONISTS” (priority 2007, published 2008).

Columns and labels:
[1] = system: subject with fluid overload; test: Example 7: IV KW-3902 concurrent with diuretic therapy in fluid overload; assay type: in vivo, human; conditions: 20-40 mg KW-3902 IV over 3-5 hours
Protocol: A subject with fluid overload, as manifested by peripheral edema, dyspnea, and/or other signs or symptoms presents to the physician's office or clinic. The subject has been on a therapy regimen that includes oral diuretics and needs a higher dose of diuretics to manage his/her fluid balance. To delay or prevent the onset of renal impairment and/or to delay the need to use higher dosages of standard diuretics, the subject is administered a dose of about 20 mg to about 40 mg, and preferably a dose of about 30 mg, KW-3902 IV, administered over the course of about 3 to about 5 hours, and preferably over the course of about 4 hours. The subject also receives concurrent with their diuretic therapy. The subject's fluid intake and output, urine volume, serum and urine creatinine levels, electrolytes and cardiac function are monitored.

[2] = system: Subjects presenting with New York Heart Association Class II-IV CHF and estimated creatinine clearance between 20 mL/min and 80 mL/min
Protocol: The subjects are taking an oral loop diuretic. The subjects can also present with a one of the following: history of seizure, stroke within two years, brain tumor, brain surgery within two years, encephalitis within two years, history of penetrating head trauma, closed head injury with loss of consciousness over 30 minutes within two years, history of alcohol withdrawal seizure, advanced Alzheimer's disease, or advanced multiple sclerosis (“at risk” subjects). The subjects' medical history, physical examination, classification of CHF, vital signs, body weight, CHF signs and symptom scores, Holter monitor recording, chest X-ray, CBC chemistries, creatinine clearance, fluid intake, and urine output are determined on pre-treatment days −2 to −1, days 1 to 3 of the Treatment Period, day 4/early Termination and a follow up contact at day 30. […] On day 1, the composition comprising KW-3902 (or placebo) is administered as a monotherapy. 6 hours after administration of KW-3902, IV loop diuretic is given to all treatment groups as needed. […] Final laboratory data are collected on day 4 or early termination. Follow-up phone contact is conducted on day 30.

[3] = system: Subjects presenting with congestive heart failure who are refractory to high dose diuretic therapy; test: Example 3: IV KW-3902 in subjects refractory to standard IV diuretic therapy; assay type: in vivo, human; conditions: 20-40 mg KW-3902 IV over 3-5 hours
Protocol: Changes in urine output are measured hourly. The subjects' creatinine clearance rate is measured every 3 hours. […] A dose of between about 20 mg and about 40 mg, preferably about 30 mg of KW-3902 in injectable form is infused through the IV line over the course of about 3 to about 5 hours, and preferably over the course of 4 hours. The subject receives continued treatment with furosemide. The subject's fluid intake and output, urine volume, serum and urine creatinine levels, electrolytes and cardiac function are monitored.

[4] = system: subject with fluid overload and impaired renal function; test: Example 5: IV KW-3902 concurrent with diuretic therapy in fluid overload and impaired renal function; assay type: in vivo, human; conditions: 20-40 mg KW-3902 IV over 3-5 hours, concurrent with other diuretic therapy
Protocol: A subject with fluid overload, as manifested by peripheral edema, dyspnea, and/or other signs or symptoms presents themself to the physician's office or clinic. The subject has been on a therapy regimen that includes oral diuretics and, in addition, to needing a higher dose of diuretics to manage his/her fluid balance, the subject is now showing impaired renal function. […] The subject is administered a dose of about 20 mg to about 40 mg KW-3902 intravenously over about 3 to about 5 hours, preferably over the course of about 4 hours, concurrent with other diuretic therapy. The subject's fluid intake and output, urine volume, serum and urine creatinine levels, electrolytes and cardiac function are monitored.

[5] = system: hospitalized subject treated with maximum amounts of IV diuretic and still fluid overloaded; test: Example 4: IV KW-3902 with continued furosemide in a hospitalized subject refractory to IV diuretic; assay type: in vivo, human; conditions: 20-40 mg KW-3902 IV over 3-5 hours
Protocol: A hospitalized subject who has been treated with maximum amounts of IV diuretic and is still symptomatic, fluid overloaded, or whose urine output is less than fluid intake is evaluated for further treatment. A dose of a KW-3902 between about 20 mg and about 40 mg, and preferably about 30 mg injectable form is infused through the IV line over the course of about 3 hours to about 5 hours, and preferably over the course of about 4 hours. […] The subject's fluid intake and output, urine volume, serum and urine creatinine levels, electrolytes and cardiac function are monitored.

CCCn1c(=O)c2[nH]c(C34CC5CC(CC3C5)C4)nc2n(CCC)c1=O [KW-3902, 8-(3-noradamantyl)-1,3-dipropylxanthine]
diuresis [1]: improved diuresis | renal function [1]: renal function is maintained | seizure throughout the course of treatment [1]: do not experience a seizure | kidney function as measured by serum creatinine levels compared to the baseline levels ([2]; 20-40 mg (preferably about 30 mg) KW-3902 IV over about 4 hours, days 1-3, effect greater than placebo): improvement in kidney function | seizures throughout the treatment period ([2]; at risk subjects): do not experience seizures | diuresis, as measured by urine output ([2]; combination of KW-3902 and non adenosine-modifying diuretics such as furosemide): synergistic beneficial effect on diuresis | seizures during the course of treatment ([3]; continued furosemide): do not experience seizures | creatinine clearance ([3]; compared to placebo): improvement in creatinine clearance | hourly urine volume over the ensuing 9 hours ([3]; compared to placebo): increased hourly urine volume | creatinine clearance [4]: improved diuresis and creatinine clearance | diuresis [4]: improved diuresis | seizures throughout the course of therapy [4]: do no experience seizures | diuresis [5]: improved diuresis | seizures [5]: do not experience seizures
